Results reported in patent US20230075822A1, “USE OF CASTALAGIN OR ANALOGS THEREOF FOR ANTI-CANCER EFFICACY AND TO INCREASE THE RESPONSE TO IMMUNE CHECKPOINT INHIBITORS” (THE ROYAL INSTITUTION FOR THE ADVANCEMENT OF …, priority 2020, published 2023).

Tests used:
[1] = system: CD8^+ T cells; assay: Flow cytometry immune profiling of TILs, MCA-205 tumor model; format: in vivo, C57BL/6 mice; details: SPF mice, castalagin experiment
Description: FIGS. 7A-C are graphs showing the results of immune cell profiling by flow cytometry in the murine MCA-205 (FIGS. 7A-B) or E0771 (FIG. 7C) tumor model treated with anti-PD-1 and/or CC. The tumors and the spleens were harvested 9 days or 19 days after the first injection of anti-PD-1 mAb into mice bearing MCA-205 or E0771 tumors, respectively. Excised tumors were cut into small pieces and digested in RPMI medium containing Liberase 25 μg/mL (Roche) and DNase1 at 150 Ul/mL (Roche) for 30 minutes at 37° C. and then crushed and filtered twice using 100 and 70 μm cell strainers (Becton & Dickinson). Spleens were crushed in RPMI medium and subsequently filtered through a 100 μm cell strainer. Two million tumor cells or splenocytes were pre-incubated with purified anti-mouse CD16/CD32 (clone 93; eBioscience) for 30 minutes at 4° C., before membrane staining (CD45, CD3, CD4, CD8, PD1, PDL1, ICOS, CXCR3, CCR9, CD45RB, CD62L, CD44). For intracellular staining, the Foxp3 staining kit (eBioscience) was used. Dead cells were excluded using the Live/Dead Fixable aqua blue dead cell stain kit (Life Technologies). […] FIG. 7C is a graph showing the activation of intratumoral CD8^+ T cells (as assessed by MFI of ICOS^+CD8^+ T cells by flow cytometry) in TILs in the E0771 tumor model post-treatment with CC +/−αPD-1. […]

[2] = system: MCA-205 sarcoma; assay: MCA-205 tumor model in germ-free conditions; format: in vivo, C57BL/6 mice; details: castalagin 0.85 mg/kg per mouse
Description: FIG. 9A is a graph showing the effects of castalagin administration at the standard concentration (0.85 mg/kg per mouse) in germ-free conditions on tumor size in the murine MCA-205 tumor model.
Murine studies. All animal studies were approved by the Institutional Animal Care Committee (CIPA) and carried out in compliance with the Canadian Council on Animal Care guidelines. Murine experiments were conducted using seven-week-old female C57BL/6 mice, obtained from Charles River, Canada. Germ-free female C57BL/6 mice were purchased from the International Microbiome Centre Germ-Free Facility (University of Calgary, Canada) and maintained at the CR-CHUM Germ-Free Facility.
Subcutaneous model of MCA-205 sarcoma and E0771 breast cancer. Syngeneic C57BL/6 mice were implanted with 0.8×10^6 MCA-205 or 0.5×10^6 E0771 subcutaneously. When tumors reached 20 to 35 mm^2 in size, mice were treated four times (or two times for flow cytometry analysis, see section below) intraperitoneally (i.p.) every three day with anti-PD-1 monoclonal antibody (mAb) (250 μg/mouse; clone RMP1-14, BioXcell) or isotype control (clone 2A3, BioXcell). […] In the control group mice received daily oral gavage with water (100 μL) Tumor area was routinely monitored every three days by means of a caliper. […]

**Q.** Which “TCM CD8^+ T cells (CD45RB^−CD62L^+) in TILs” value [1] does the source give for `O=C1OC[C@H]2OC(=O)c3cc(O)c(O)c(O)c3-c3c(O)c(O)c(O)c4c3C(=O)O[C@H]([C@H]3OC(=O)c5c-4c(O)c(O)c(O)c5[C@@H]3O)[C@@H]2OC(=O)c2cc(O)c(O)c(O)c2-c2c1cc(O)c(O)c2O` [castalagin, Castalagin] here?
**A.** Its value is “upregulation of Tom CD8^+ T cells”.

**Q.** What about the tumor size [2] of the same compound?
**A.** Its tumor size is “abrogated castalagin antitumor effect”.
